Here are results for 21 molecules from patent US20230116972A1, “CD38 MODULATORS AND METHODS OF USE THEREOF” (Cytokinetics, Inc., priority 2021, published 2023).

Molecules are shown by their SMILES.

As a reminder, the IC50 is the concentration that inhibits the measured activity by half.

The target of assay [1] is T1, human CD38 (Homo sapiens, UniProt P28907).
T1 sequence (P28907 1-300): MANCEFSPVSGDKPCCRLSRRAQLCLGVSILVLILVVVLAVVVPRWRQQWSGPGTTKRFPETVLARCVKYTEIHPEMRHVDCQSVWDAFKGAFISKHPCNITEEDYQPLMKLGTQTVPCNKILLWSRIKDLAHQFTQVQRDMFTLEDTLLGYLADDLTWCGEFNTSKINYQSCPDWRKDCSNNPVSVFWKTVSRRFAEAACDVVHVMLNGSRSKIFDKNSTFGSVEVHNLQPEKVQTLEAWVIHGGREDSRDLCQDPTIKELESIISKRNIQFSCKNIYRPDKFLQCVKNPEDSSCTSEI
The assay is described as follows: human recombinant CD38 enzyme assay (hydrolysis of NAD+). It counts as biochemical. Particulars: human recombinant CD38, 0.4 nM enzyme, 62.5 μM NAD+; read-out: hCD38 BioChem IC50. Summed up:
(§1)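 Residual NAD+ after 60 min of cell-free hydrolysis by recombinant mouse or human CD38 at ambient temperature, measured over a dose range. Detection used ADH conversion to NADH, then diaphorase-coupled resazurin-to-resorufin fluorescence (Ex/Em 540/590 nm).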

The target of assay [2] is T2, mouse CD38 (Mus musculus, UniProt P56528).
T2 sequence (P56528 1-304): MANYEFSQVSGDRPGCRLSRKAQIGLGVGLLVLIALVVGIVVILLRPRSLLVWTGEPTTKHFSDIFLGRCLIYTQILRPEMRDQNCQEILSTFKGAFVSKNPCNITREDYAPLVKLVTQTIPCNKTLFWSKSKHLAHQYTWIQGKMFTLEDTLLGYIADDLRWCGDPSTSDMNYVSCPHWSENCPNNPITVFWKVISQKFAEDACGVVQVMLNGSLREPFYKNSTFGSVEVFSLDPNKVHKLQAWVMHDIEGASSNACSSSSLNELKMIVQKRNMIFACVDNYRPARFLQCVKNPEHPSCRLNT
Description: mouse recombinant CD38 enzyme assay (hydrolysis of NAD+). Particulars: read-out: mCD38 BioChem IC50. The assay is classed as biochemical. The gist of the method: as §1

The target in assay [3] is T3, endogenous CD38 in HL60 cells (Homo sapiens, UniProt P28907).
T3 construct: endogenous in cells; host or cells: HL60 (leukemic cells, treated with all-trans retinoic acid)
T3 sequence (P28907 1-300): T1 sequence (P28907 1-300)
Description: cellular CD38 assay in HL60 cells (cellular NAD levels). It counts as cell-based. The note with it: all-trans retinoic acid, 24 hours, read-out: hCD38 HL60 ATRA NAD Cell Diaphorase IC50. The gist of the method: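 Endogenous CD38 inhibition is inferred from NAD levels in HL60 cells after 24 h compound exposure at 20000 cells per well. A lytic cycling readout (0.2 U/mL diaphorase, 0.8 U/mL alcohol dehydrogenase, resazurin, FMN, ethanol, 0.2% Triton X-100, Tris/EDTA pH 8.4) ran 60 min at ambient temperature. Resorufin fluorescence was read at 540/590 nm.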

`COc1cc(C(=O)Nc2ccc(C(F)F)nc2)nc(-c2cncn2C)n1` [Compound 129, N-(6-(difluoromethyl)pyridin-3-yl)-6-methoxy-2-(1-methyl-1H-imidazol-5-yl)pyrimidine-4-carboxamide]: the IC50 in assay [1] was 2 nM; in assay [2], 1 nM; in assay [3], 267 nM.
For `COc1cc(C(=O)N[C@H]2CC[C@H](OC)CC2)nc(-c2cncs2)n1` [Compound 130, 6-methoxy-N-((1r,4r)-4-methoxycyclohexyl)-2-(thiazol-5-yl)pyrimidine-4-carboxamide], the values for the half-maximal inhibitory concentration (IC50) in assay [1], in assay [2] and in assay [3] were 488 nM, 44 nM and 10300 nM, respectively.
Regarding `COc1cc(C(=O)Nc2ccc(C(F)F)nc2)nc(-c2cncs2)n1` [Compound 131, N-(6-(difluoromethyl)pyridin-3-yl)-6-methoxy-2-(thiazol-5-yl)pyrimidine-4-carboxamide], the 50% inhibitory concentration (IC50) in assay [1] came to 66 nM; in assay [2] it was 23 nM; in assay [3], 2910 nM.
As to `Cc1cc(C(=O)Nc2ccc(C(F)F)nc2)nc(-c2cncs2)c1` [Compound 132, N-(6-(difluoromethyl)pyridin-3-yl)-4-methyl-6-(thiazol-5-yl)picolinamide], the IC50 is 115 nM in assay [1], 55 nM in assay [2] and 5560 nM in assay [3].
As to `CC(C)(O)[C@H]1CC[C@H](NC(=O)c2cccc(-n3ccnc3)n2)CC1` [Compound 134, N-((1r,4r)-4-(2-Hydroxypropan-2-yl)cyclohexyl)-6-(1H-imidazol-1-yl)picolinamide], the half-maximal inhibitory concentration (IC50) is 37 nM in assay [1], 5 nM in assay [2] and 3020 nM in assay [3].
The corresponding values for `O=C(NC1CC2C(C1)C2(F)F)c1cccc(-n2ccnc2)n1` (stereo not drawn) [Compound 135, N-(6,6-difluorobicyclo[3.1.0]hexan-3-yl)-6-(1H-imidazol-1-yl)picolinamide] are 76 nM, 15 nM and 1320 nM.
As to `O=C(NC1CCC(F)(F)CC1)c1cccc(-n2ccnc2)n1` [Compound 136, N-(4,4-difluorocyclohexyl)-6-(1H-imidazol-1-yl)picolinamide], the values for the IC50 in assay [1], in assay [2] and in assay [3] were 23 nM, 6 nM and 1540 nM, respectively.
With `Cc1ccc(NC(=O)c2cc(C(F)(F)F)nc(-n3ccnc3)n2)cn1` [Compound 137, 2-(1H-imidazol-1-yl)-N-(6-methylpyridin-3-yl)-6-(trifluoromethyl)pyrimidine-4-carboxamide], the IC50 in assay [1] turned out to be 8 nM; in assay [2], 7 nM; in assay [3], 867 nM.
The corresponding values for `O=C(N[C@H]1CC[C@H](C(F)F)CC1)c1cc(C(F)(F)F)nc(-n2ccnc2)n1` [Compound 138, N-((1r,4r)-4-(difluoromethyl)cyclohexyl)-2-(1H-imidazol-1-yl)-6-(trifluoromethyl)pyrimidine-4-carboxamide] are 73 nM, 25 nM and 3010 nM.
The corresponding values for `O=C(Nc1ccc(C(F)F)nc1)c1nccc(-n2ccnc2)n1` [Compound 144, N-(6-(difluoromethyl)pyridin-3-yl)-4-(1H-imidazol-1-yl)pyrimidine-2-carboxamide] are 3 nM, 14 nM and 129 nM.
The corresponding values for `C[C@H]1CC[C@H](NC(=O)c2nccc(-n3ccnc3)n2)CC1` [Compound 146, 4-(1H-imidazol-1-yl)-N-((1r,4r)-4-methylcyclohexyl)pyrimidine-2-carboxamide] are 62 nM, 23 nM and 1700 nM.
`Cn1cncc1-c1ccnc(C(=O)Nc2ccc(C(F)F)nc2)n1` [Compound 147, N-(6-(difluoromethyl)pyridin-3-yl)-4-(1-methyl-1H-imidazol-5-yl)pyrimidine-2-carboxamide]: the IC50 in assay [1] was determined as 2 nM; in assay [2], 6 nM; in assay [3], 151 nM.
The corresponding values for `Cn1cncc1-c1ccnc(C(=O)N[C@H]2CC[C@H](C)CC2)n1` [Compound 149, 4-(1-methyl-1H-imidazol-5-yl)-N-((1r,4r)-4-methylcyclohexyl)pyrimidine-2-carboxamide] are 43 nM, 13 nM and 1380 nM.
The corresponding values for `CO[C@H]1CC[C@H](NC(=O)c2cc(C(F)(F)F)nc(-c3cncn3C)n2)CC1` [Compound 151, N-((1r,4r)-4-methoxycyclohexyl)-2-(1-methyl-1H-imidazol-5-yl)-6-(trifluoromethyl)pyrimidine-4-carboxamide] are 14 nM, 1 nM and 1970 nM.
The matching figures for `Cn1cncc1-c1nc(C(=O)N[C@H]2CC[C@H](C(F)F)CC2)cc(C(F)(F)F)n1` [Compound 152, N-((1r,4r)-4-(difluoromethyl)cyclohexyl)-2-(1-methyl-1H-imidazol-5-yl)-6-(trifluoromethyl)pyrimidine-4-carboxamide]: 13 nM, 1 nM and 2350 nM.
On to `Cn1cncc1-c1nc(C(=O)N[C@H]2CC[C@H](C)CC2)cc(C(F)(F)F)n1` [Compound 153, 2-(1-methyl-1H-imidazol-5-yl)-N-((1r,4r)-4-methylcyclohexyl)-6-(trifluoromethyl)pyrimidine-4-carboxamide], for which the IC50 in assay [1] was 25 nM; in assay [2], 2 nM; in assay [3], 3130 nM.
On to `Cn1cncc1-c1nc(C(=O)NC2CC3(C2)CC(F)(F)C3)cc(C(F)(F)F)n1` [Compound 154, N-(6,6-difluorospiro[3.3]heptan-2-yl)-2-(1-methyl-1H-imidazol-5-yl)-6-(trifluoromethyl)pyrimidine-4-carboxamide], for which the values for the half-inhibitory concentration (IC50) in assay [1], in assay [2] and in assay [3] were 11 nM, 1 nM and 3150 nM, respectively.
Take `COCCO[C@H]1CC[C@H](NC(=O)c2cc(C)nc(-c3cncn3C)n2)CC1` [Compound 155, N-((1r,4r)-4-(2-methoxyethoxy)cyclohexyl)-6-methyl-2-(1-methyl-1H-imidazol-5-yl)pyrimidine-4-carboxamide]: the IC50 was 24 nM in assay [1], 1 nM in assay [2] and 2300 nM in assay [3].
Take `COCCO[C@H]1CC[C@H](NC(=O)c2cc(C)nc(-n3ccnc3)n2)CC1` [Compound 156, 2-(1H-imidazol-1-yl)-N-((1r,4r)-4-(2-methoxyethoxy)cyclohexyl)-6-methylpyrimidine-4-carboxamide]: the concentration for half-maximal inhibition (IC50) in assay [1] was determined as 30 nM; in assay [2] it was 4 nM; in assay [3], 2300 nM.
As to `COCCO[C@H]1CC[C@H](NC(=O)c2cc(C(F)(F)F)nc(-n3ccnc3)n2)CC1` [Compound 157, 2-(1H-imidazol-1-yl)-N-((1r,4r)-4-(2-methoxyethoxy)cyclohexyl)-6-(trifluoromethyl)pyrimidine-4-carboxamide], the IC50 in assay [1] is 121 nM; in assay [2], 48 nM; in assay [3] it was 7230 nM.
The matching figures for `CC(C)(O)c1cc(C(=O)Nc2ccc(C(F)F)nc2)nc(-n2ccnc2)n1` [Compound 158, N-(6-(difluoromethyl)pyridin-3-yl)-6-(2-hydroxypropan-2-yl)-2-(1H-imidazol-1-yl)pyrimidine-4-carboxamide]: 228 nM, 185 nM and 3980 nM.
